Laboratory results reported in patent publication US20240293344A1, “Unsaturated Hydroxamic Acid Derivatives and Their Use for the Treatment and Prevention of an Ammonia-Associated Disease or Disorder” (Versantis AG, priority 2021, published 2024).

What was measured:
[1] = Stability of 2-octynoHA in solution (UHPLC-UV); format: physicochemical
Method: Preliminary stability of 2-octynoHA was assessed in HBSS pH 7.4 supplemented with HEPES 15 mM and compared to stability of the molecule in ultra-pure water.
Both solutions of 2-octynoHA were prepared to a final concentration of 0.5 mg/mL. 2-octynoHA was incubated for ca. 20 min at 37° C. until fully dissolved in the corresponding media. Once solutions were prepared, they were subjected to UHPLC-UV analysis within ca. 1 h while being kept at room temperature. For chromatographic separation and spectrophotometric analysis, 2 μL of each solution were injected. The chromatographic separation was performed on a 10 cm Polar C18 UHPLC column with a mobile phase composed of water, acetonitrile and formic acid 0.1%.
Detection was performed on a diode array detector by monitoring UV absorbance at 200 nm. 2-octynoHA was detected at 200 nm with RT=5.36 min in both solutions.
In order to identify the product of degradation, a solution of 2-octynoHA 10 mM was prepared in phosphate buffer (KH2PO4 200 mM pH 6.8) and left to incubate overnight at 37° C. […] The product of degradation was then extracted with chloroform, the organic phase was collected, dried over Na2SO4 and filtered. The solvent was evaporated, the obtained substance was dissolved in deuterated dimethyl sulfoxide (DMSO-d6) for ^1H NMR analysis.

[2] = test system: S. typhimurium strains (TA98, TA100, TA1535, TA1537); experiment: Ames test (Ames MPF Penta 1), S. typhimurium strains; conditions: TA98, TA100, TA1535, TA1537, with or without metabolic activation (S9)
Source text: A commercial microplate format test kit (Ames MPF™ Penta 1, Xenometrix, Switzerland) was used for this experiment. The most commonly used strains in the Ames tests, S. typhimurium with point mutations in the histidine operon and E. coli with mutations in the tryptophan operon were utilized as the model systems. The mutagenicity of the three hydroxamic acids was investigated in four S. typhimurium strains (TA98, TA100, TA1535, TA1537) and in the mixture of two E. coli strains (wp2 [pKM101] and wp2 uvrA) with and without metabolic activation (S9 fraction) according to the manufacturer's protocol.
Bacteria were exposed to 6 concentrations of the test compounds, solvent control (DMSO) and positive control substances (concentrations listed in Tables I-II below) for 90 min in the medium containing enough histidine for S. typhimurium or tryptophan for E. coli to support cell growth. After that, the cultures media were diluted with pH indicator solution lacking histidine or tryptophan and aliquoted into 48 wells of a 384-well plate. Within 48 hours, media containing cells that reverted to amino acid prototrophy turned yellow as bacteria metabolism reduced the pH of the media. The number of yellow wells containing revertant colonies was counted for each dose of the test compounds and compared to the solvent control.

[3] = test system: bile-duct ligated (BDL) rat model of hepatic encephalopathy; experiment: In vivo efficacy in bile-duct ligated (BDL) rats, blood ammonia; conditions: 30 mg/kg twice a day by gavage in HPβCD solution, dropped from 53±30.31 μmol/L before treatment, n=4
Method: Efficacy of 2-octynoHA was evaluated in the bile-duct ligated (BDL) rat model, which is recommended by the International Society for Hepatic Encephalopathy and Nitrogen Metabolism (ISHEN) as an animal model of hepatic encephalopathy (HE) associated with chronic liver cirrhosis. This model is obtained by obstruction of the common bile duct that causes impairment of liver function and thereby development of hyperammonemia and low-grade HE.
In this study, on the DO blood ammonia levels were measured (n=4, 27.25±6.18 μmol/L) using PocketChem™ (Arkray, Japan) after which all rats were subjected to the BDL surgery. Right before surgery all animals were given injection of slow-release buprenorphine (lasting 72 h) between the shoulder blades. Then, animals were anesthetized with isoflurane in O2. Depth of anesthesia was checked by toe-pinching. Further, a midline incision was made (2 cm), and then the common bile duct was isolated of surrounding tissue, tightly ligated twice with silk suture and cut between the 2 ligations. Abdominal incision was closed with Vicryl™ 4-0 for muscle layers; skin was closed with staples and one drop of Vetbond™ tissue glue was applied to secure closing. Animals were then placed on heating pad for recovery. For the first 4 weeks post-surgery, animals were monitored for pain level, extent of jaundice, body weight (BW) and disease scores. […]

[4] = test system: mixture of E. coli strains (wp2 [pKM101] and wp2 uvrA); experiment: Ames test (Ames MPF Penta 1), E. coli strain mixture; format: cell-based; conditions: with or without metabolic activation (S9)
Source text: A commercial microplate format test kit (Ames MPF™ Penta 1, Xenometrix, Switzerland) was used for this experiment. […] The mutagenicity of the three hydroxamic acids was investigated in four S. typhimurium strains (TA98, TA100, TA1535, TA1537) and in the mixture of two E. coli strains (wp2 [pKM101] and wp2 uvrA) with and without metabolic activation (S9 fraction) according to the manufacturer's protocol.

[5] = test system: Caco-2 cells; experiment: Cytotoxicity in Caco-2 cells (CCK-8); conditions: 24 h
Method: The compounds used were 2-octynoHA, OHA (Tokyo Chemical Industry Co., Ltd.; Japan) and AHA (Sigma-Aldrich, St. Louis, MO) The human colorectal adenocarcinoma cell line Caco-2 was obtained from American Type Culture Collection. The cells were cultured in complete medium containing DMEM (Dulbecco's modified Eagle's medium) high glucose, GlutaMax™, pyruvate (Thermo Fisher Scientific, Waltham, MA) supplemented with 10% fetal bovine serum (Thermo Fisher Scientific, Waltham, MA), 1% penicillin-streptomycin (Thermo Fisher Scientific, Waltham, MA) and 15 mM HEPES (Thermo Fisher Scientific, Waltham, MA). The cells were incubated at 37° C. in a humidified atmosphere with 5% CO2. Caco-2 cells were used in the experiments from passage 50 to 60 and were tested negative for mycoplasma.
The cytotoxicity of HAs was assessed using Cell Counting Kit-8 (CCK-8, Sigma-Aldrich, St. Louis, MO), a colorimetric assay based on tetrazolium salt WST-8 which is reduced by dehydrogenases in cells to an orange-colored formazan. The absorbance of formazan at 450 nm is directly proportional to the number of living cells.
In order to test cytotoxicity of HAs, Caco-2 cells were seeded in a 96-well plate at a density of 5×10^3 cell/well and grown for 1 day. Then, cells were treated with an increasing range of inhibitors' concentrations and incubated for another 24 h at 37° C., 5% CO2. […] After incubation, cells were washed with phosphate buffered saline (Thermo Fisher Scientific, Waltham, MA), treated with DMEM without phenol red (Thermo Fisher Scientific, Waltham, MA) containing CCK-8 reagent and incubated for another 2 h at 37° C. in a humidified atmosphere with 5% CO2. The absorbance of medium at 450 nm was measured using Tecan Infinite M200 PRO plate reader. Caco-2 cell viability was calculated as a percentage of the medium control.

CCCCCC#CC(=O)NO [2-octynoHA, N-hydroxyoct-2-ynamide]
degradation in solution (UHPLC-UV) ([1]; 0.5 mg/mL in HBSS pH 7.4 with HEPES 15 mM, ca. 20 min at 37° C., analysed within ca. 1 h at room temperature): degraded | degradation in solution (UHPLC-UV) ([1]; 0.5 mg/mL in ultra-pure water, ca. 20 min at 37° C., analysed within ca. 1 h at room temperature): No degradation | degradation in solution (UHPLC-UV) ([1]; 10 mM in KH2PO4 200 mM pH 6.8, overnight at 37° C.): Complete degradation | mutagenicity (reverse mutations) [2]: not mutagenic up to 1 mM | mean blood ammonia level three days after initiating treatment [3]: 11 ± 5.68 µmol/L | mutagenicity (reverse mutations) [4]: not mutagenic up to 1 mM | Caco-2 cell viability (percentage of the medium control) ([5]; 10 mM): ca. 6% | concentration up to which no cytotoxicity was detected ([5]; Caco-2 cells): up to 1 mM
